# Source: patent US20190151390A1, “PERILLA EXTRACT COMPOSITION” (INQPHARM GROUP SDN BHD, priority 2016, published 2019)
# Tested on: HMC-1 cells
# Test: Mast cell test: histamine release from IgE/anti-IgE stimulated HMC-1 cells, ELISA of supernatant
# Type: cell-based
# Settings: for Histamine reduction (%): compared to respective vehicle control; for Histamine (ng/ml) mean ± SD (n = 3): HMC-1 cells, supernatant ELISA
# Method: Mast cell lines, i.e. HMC1 cells (provided by Dr Joseph H. Butterfield; Mayo Clinic, Rochester, Minn., USA), were cultured in Isocove's Modified Dulbecco's Medium (IMDM) containing 10% Fetal Bovine Seum (FBS), 2 mM L-glutamine, 50 μM 2-mercaptoethanol, 100 U/mL penicillin and 100 μg/mL streptomycin. Cells were maintained at 37° C. in 5% CO2 in a humidified atmosphere. Percentage of living cells was determined by trypan blue staining. A 1:10 dilution with 50 μl cell suspension and 450 μl trypan blue was prepared and the number of living and dead cells was counted in a hemocytometer. 10^6 living cells were transferred into safe-lock Eppendorf tubes. Cell suspensions were centrifuged (200 g, 5 min) and supernatant was discarded. The effect of perilla oil, sesame oil and a combination of perilla oil and sesame oil (1:1 ratio) in the vehicle Kolliphor ELP (polyoxyl-35 hydrogenated castor oil) was determined. The positive control Cromolyn in phosphate buffer saline (PBS), the vehicles PBS and ELP were also tested as controls. After adding 100 μl IgE (100 ng/ml in PBS or ELP) to the cell pellets, cells were incubated for 12 hours over night, at 37° C. Cells were then incubated for 2 hours, at 37° C. with two different concentrations of compounds, i.e. 250 μg/ml and 500 μg/ml. After centrifugation (200 g, 5 min) supernatant was discarded and cell pellet was again incubated for 1 hour, at 37° C. with 100 μl anti-IgE (1 μg/ml in PBS or ELP). For the final incubation time of 6 hours, at 37° C., 300 μl HMC1 media was added. Cells were again centrifuged (200 g, 5 min) and supernatant was collected and stored as 300 μl aliquots at −20° C. for ELISA measurements. Cell pellets were resuspended in 100 μl HMC1 media for determining cell viability. The concentration of histamine in the collected supernatant was determined by ELISA, using a kit obtained from IBL International according to the manufacturer's guidelines. Each sample was measured twice. Due to expected measuring limits, vehicle (PBS, ELP) treated samples were diluted 1:2. Statistical analysis was performed with GraphPad Prism (Version 5.01) software (GraphPad Software Inc., San Diego, Calif., USA) using the unpaired two-tailed Students t test. A P value of less than 0.05 was considered statistically significant.
compound,measurement,setting,value
O=C(O)c1cc(=O)c2c(OCC(O)COc3cccc4oc(C(=O)O)cc(=O)c34)cccc2o1 [Cromolyn],Histamine reduction (%) compared to averaged histamine release of perilla oil and sesame oil,250 μg/ml,8.41%
same,Histamine reduction (%),250 μg/ml,57.61%
same,Histamine reduction (%) compared to averaged histamine release of perilla oil and sesame oil,500 μg/ml,6.75%
same,Histamine reduction (%),500 μg/ml,55.28%
same,Histamine (ng/ml) mean ± SD (n = 3),250 μg/ml,121.05 ± 0.73 ng/mL
same,Histamine (ng/ml) mean ± SD (n = 3),500 μg/ml,127.70 ± 13.32 ng/mL
same,Increase of percentage of histamine reduction compared to treatment with individual compounds,range over 250 and 500 μg/ml,6.8-8.4%
